Laboratory results: ChEMBL document CHEMBL1201861, “Genomics of Drug Sensitity in Cancer screening data, Wellcome Trust Sanger Institute”

Key:
Experiment in all cases: cells
Conditions in all cases: Homo sapiens
COLO-792 = assay type: functional, cell-based
Description: SANGER: Inhibition of human COLO-792 cell growth in a cell viability assay.

Ca9-22 = assay type: functional, cell-based
Description: SANGER: Inhibition of human Ca9-22 cell growth in a cell viability assay.

D-247MG = assay type: functional, cell-based
Description: SANGER: Inhibition of human D-247MG cell growth in a cell viability assay.

D-336MG = assay type: functional, cell-based
Description: SANGER: Inhibition of human D-336MG cell growth in a cell viability assay.

Detroit 562 = assay type: functional, cell-based
Description: SANGER: Inhibition of human Detroit562 cell growth in a cell viability assay.

EFO-21 = assay type: functional, cell-based
Description: SANGER: Inhibition of human EFO-21 cell growth in a cell viability assay.

GP5d = assay type: functional, cell-based
Description: SANGER: Inhibition of human GP5d cell growth in a cell viability assay.

HCC38 = assay type: functional, cell-based
Description: SANGER: Inhibition of human HCC38 cell growth in a cell viability assay.

HO-1-N-1 = assay type: functional, cell-based
Description: SANGER: Inhibition of human HO-1-N-1 cell growth in a cell viability assay.

JEG-3 = assay type: functional, cell-based
Description: SANGER: Inhibition of human JEG-3 cell growth in a cell viability assay.

KYSE-180 = assay type: functional, cell-based
Description: SANGER: Inhibition of human KYSE-180 cell growth in a cell viability assay.

KYSE-510 = assay type: functional, cell-based
Description: SANGER: Inhibition of human KYSE-510 cell growth in a cell viability assay.

LCLC-97TM1 = assay type: functional, cell-based
Description: SANGER: Inhibition of human LCLC-97TM1 cell growth in a cell viability assay.

LN-405 = assay type: functional, cell-based
Description: SANGER: Inhibition of human LN-405 cell growth in a cell viability assay.

M14 = assay type: functional, cell-based
Description: SANGER: Inhibition of human M14 cell growth in a cell viability assay.

MC-IXC = assay type: functional, cell-based
Description: SANGER: Inhibition of human MC-IXC cell growth in a cell viability assay.

MCF7 = assay type: functional, cell-based
Description: SANGER: Inhibition of human MCF7 cell growth in a cell viability assay.

MEL-JUSO = assay type: functional, cell-based
Description: SANGER: Inhibition of human MEL-JUSO cell growth in a cell viability assay.

MKN-28 = assay type: functional, cell-based
Description: SANGER: Inhibition of human MKN28 cell growth in a cell viability assay.

MOLT-13 = assay type: functional, cell-based
Description: SANGER: Inhibition of human MOLT-13 cell growth in a cell viability assay.

NCI-H1993 = assay type: functional, cell-based
Description: SANGER: Inhibition of human NCI-H1993 cell growth in a cell viability assay.

NCI-H2009 = assay type: functional, cell-based
Description: SANGER: Inhibition of human NCI-H2009 cell growth in a cell viability assay.

NCI-H630 = assay type: functional, cell-based
Description: SANGER: Inhibition of human NCI-H630 cell growth in a cell viability assay.

NCI-H650 = assay type: functional, cell-based
Description: SANGER: Inhibition of human NCI-H650 cell growth in a cell viability assay.

OVCAR-8 = assay type: functional, cell-based
Description: SANGER: Inhibition of human OVCAR-8 cell growth in a cell viability assay.

RD = assay type: functional, cell-based
Description: SANGER: Inhibition of human RD cell growth in a cell viability assay.

S-117 = assay type: functional, cell-based
Description: SANGER: Inhibition of human S-117 cell growth in a cell viability assay.

SBC-5 = assay type: functional, cell-based
Description: SANGER: Inhibition of human SBC-5 cell growth in a cell viability assay.

SCC-4 = assay type: functional, cell-based
Description: SANGER: Inhibition of human SCC-4 cell growth in a cell viability assay.

SK-HEP1 = assay type: functional, cell-based, SK-HEP-1
Description: SANGER: Inhibition of human SK-HEP-1 cell growth in a cell viability assay.

SK-LU-1 = assay type: functional, cell-based
Description: SANGER: Inhibition of human SK-LU-1 cell growth in a cell viability assay.

SK-MEL-24 = assay type: functional, cell-based
Description: SANGER: Inhibition of human SK-MEL-24 cell growth in a cell viability assay.

SNU-387 = assay type: functional, cell-based
Description: SANGER: Inhibition of human SNU-387 cell growth in a cell viability assay.

SNU-423 = assay type: functional, cell-based
Description: SANGER: Inhibition of human SNU-423 cell growth in a cell viability assay.

SW1463 = assay type: functional, cell-based
Description: SANGER: Inhibition of human SW1463 cell growth in a cell viability assay.

SW1710 = assay type: functional, cell-based
Description: SANGER: Inhibition of human SW1710 cell growth in a cell viability assay.

SW-620 = assay type: functional, cell-based
Description: SANGER: Inhibition of human SW620 cell growth in a cell viability assay.

SAOS-2 = assay type: functional, cell-based
Description: SANGER: Inhibition of human Saos-2 cell growth in a cell viability assay.

SiHa = assay type: functional, cell-based
Description: SANGER: Inhibition of human SiHa cell growth in a cell viability assay.

T98G = assay type: functional, cell-based
Description: SANGER: Inhibition of human T98G cell growth in a cell viability assay.

23132-87 = assay type: functional, cell-based
Description: SANGER: Inhibition of human 23132-87 cell growth in a cell viability assay.

5637 = assay type: functional, cell-based
Description: SANGER: Inhibition of human 5637 cell growth in a cell viability assay.

639-V = assay type: functional, cell-based
Description: SANGER: Inhibition of human 639-V cell growth in a cell viability assay.

647-V = assay type: functional, cell-based
Description: SANGER: Inhibition of human 647-V cell growth in a cell viability assay.

A2058 = assay type: functional, cell-based
Description: SANGER: Inhibition of human A2058 cell growth in a cell viability assay.

ABC-1 = assay type: functional, cell-based
Description: SANGER: Inhibition of human ABC-1 cell growth in a cell viability assay.

BEN = assay type: functional, cell-based
Description: SANGER: Inhibition of human BEN cell growth in a cell viability assay.

BHT-101 = assay type: functional, cell-based
Description: SANGER: Inhibition of human BHT-101 cell growth in a cell viability assay.

BT-20 = assay type: functional, cell-based
Description: SANGER: Inhibition of human BT-20 cell growth in a cell viability assay.

C32 = assay type: functional, cell-based
Description: SANGER: Inhibition of human C32 cell growth in a cell viability assay.

TYK-nu = assay type: functional, cell-based
Description: SANGER: Inhibition of human TYK-nu cell growth in a cell viability assay.

YAPC = assay type: functional, cell-based
Description: SANGER: Inhibition of human YAPC cell growth in a cell viability assay.

CAPAN-1 = assay type: functional, cell-based
Description: SANGER: Inhibition of human CAPAN-1 cell growth in a cell viability assay.

## C[C@]12O[C@H](C[C@]1(O)CO)n1c3ccccc3c3c4c(c5c6ccccc6n2c5c31)CNC4=O [LESTAURTINIB]
COLO-792
  IC50: > 2000 nM
Ca9-22
  IC50: 900 nM
D-247MG
  IC50: 528 nM
D-336MG
  IC50: 193 nM
Detroit 562
  IC50: 236 nM
EFO-21
  IC50: > 2000 nM
GP5d
  IC50: 177 nM
HCC38
  IC50: > 2000 nM
HO-1-N-1
  IC50: 298 nM
JEG-3
  IC50: 730 nM
KYSE-180
  IC50: > 2000 nM
KYSE-510
  IC50: > 2000 nM
LCLC-97TM1
  IC50: 427 nM
LN-405
  IC50: > 2000 nM
M14
  IC50: 50.6 nM
MC-IXC
  IC50: 13.5 nM
MCF7
  IC50: > 2000 nM
MEL-JUSO
  IC50: 503 nM
MKN-28
  IC50: > 2000 nM
MOLT-13
  IC50: 409 nM
NCI-H1993
  IC50: > 2000 nM
NCI-H2009
  IC50: 1230 nM
NCI-H630
  IC50: > 2000 nM
NCI-H650
  IC50: 677 nM
OVCAR-8
  IC50: 753 nM
RD
  IC50: > 2000 nM
S-117
  IC50: 1120 nM
SBC-5
  IC50: 254 nM
SCC-4
  IC50: 1360 nM
SK-HEP1
  IC50: 31.3 nM
SK-LU-1
  IC50: 256 nM
SK-MEL-24
  IC50: > 2000 nM
SNU-387
  IC50: 601 nM
SNU-423
  IC50: 731 nM
SW1463
  IC50: > 2000 nM
SW1710
  IC50: 128 nM
SW-620
  IC50: 557 nM
SAOS-2
  IC50: 635 nM
SiHa
  IC50: > 2000 nM
T98G
  IC50: 327 nM
23132-87
  IC50: 838 nM
5637
  IC50: 82.1 nM
639-V
  IC50: 689 nM
647-V
  IC50: 1000 nM
A2058
  IC50: 245 nM
ABC-1
  IC50: > 2000 nM
BEN
  IC50: > 2000 nM
BHT-101
  IC50: 464 nM
BT-20
  IC50: 1650 nM
C32
  IC50: 182 nM
TYK-nu
  IC50: 185 nM
YAPC
  IC50: > 2000 nM
CAPAN-1
  IC50: > 2000 nM

## C[C@]1(c2nc3c(C(N)=O)cccc3[nH]2)CCCN1 [VELIPARIB]
COLO-792
  IC50: > 5000 nM
Ca9-22
  IC50: > 5000 nM
D-247MG
  IC50: > 5000 nM
D-336MG
  IC50: > 5000 nM
Detroit 562
  IC50: > 5000 nM
EFO-21
  IC50: > 5000 nM
GP5d
  IC50: > 5000 nM
HCC38
  IC50: > 5000 nM
HO-1-N-1
  IC50: > 5000 nM
JEG-3
  IC50: > 5000 nM
KYSE-180
  IC50: > 5000 nM
KYSE-510
  IC50: > 5000 nM
LCLC-97TM1
  IC50: > 5000 nM
LN-405
  IC50: > 5000 nM
M14
  IC50: > 5000 nM
MC-IXC
  IC50: > 5000 nM
MCF7
  IC50: > 5000 nM
MEL-JUSO
  IC50: > 5000 nM
MKN-28
  IC50: > 5000 nM
MOLT-13
  IC50: > 5000 nM
NCI-H1993
  IC50: > 5000 nM
NCI-H2009
  IC50: > 5000 nM
NCI-H630
  IC50: > 5000 nM
NCI-H650
  IC50: > 5000 nM
OVCAR-8
  IC50: > 5000 nM
RD
  IC50: > 5000 nM
S-117
  IC50: > 5000 nM
SBC-5
  IC50: > 5000 nM
SCC-4
  IC50: > 5000 nM
SK-HEP1
  IC50: > 5000 nM
SK-LU-1
  IC50: > 5000 nM
SK-MEL-24
  IC50: > 5000 nM
SNU-387
  IC50: > 5000 nM
SNU-423
  IC50: > 5000 nM
SW1463
  IC50: > 5000 nM
SW1710
  IC50: > 5000 nM
SW-620
  IC50: > 5000 nM
SAOS-2
  IC50: > 5000 nM
SiHa
  IC50: > 5000 nM
T98G
  IC50: > 5000 nM
23132-87
  IC50: > 5000 nM
5637
  IC50: > 5000 nM
639-V
  IC50: > 5000 nM
647-V
  IC50: > 5000 nM
A2058
  IC50: > 5000 nM
ABC-1
  IC50: > 5000 nM
BEN
  IC50: > 5000 nM
BHT-101
  IC50: > 5000 nM
BT-20
  IC50: > 5000 nM
C32
  IC50: > 5000 nM
TYK-nu
  IC50: > 5000 nM
YAPC
  IC50: > 5000 nM
CAPAN-1
  IC50: > 5000 nM

## CC[C@]1(O)C[C@@H]2CN(CCc3c([nH]c4ccccc34)[C@@](C(=O)OC)(c3cc4c(cc3OC)N(C)[C@H]3[C@@](O)(C(=O)OC)[C@H](OC(C)=O)[C@]5(CC)C=CCN6CC[C@]43[C@@H]65)C2)C1 [VINBLASTINE]
COLO-792
  IC50: 25.6 nM
Ca9-22
  IC50: 6.39 nM
D-247MG
  IC50: 6.98 nM
D-336MG
  IC50: 7.25 nM
Detroit 562
  IC50: 5.53 nM
EFO-21
  IC50: 44 nM
GP5d
  IC50: 4.67 nM
HCC38
  IC50: 58.4 nM
HO-1-N-1
  IC50: 1.76 nM
JEG-3
  IC50: 12.5 nM
KYSE-180
  IC50: 6.39 nM
KYSE-510
  IC50: 5.87 nM
LCLC-97TM1
  IC50: 5.49 nM
LN-405
  IC50: 12.4 nM
M14
  IC50: 3.19 nM
MC-IXC
  IC50: 2.99 nM
MCF7
  IC50: 31.6 nM
MEL-JUSO
  IC50: 17.5 nM
MKN-28
  IC50: 2.7 nM
MOLT-13
  IC50: 5.6 nM
NCI-H1993
  IC50: > 100 nM
NCI-H2009
  IC50: 53.4 nM
NCI-H630
  IC50: > 100 nM
NCI-H650
  IC50: 27.1 nM
OVCAR-8
  IC50: 6.55 nM
RD
  IC50: 4.17 nM
S-117
  IC50: 5.58 nM
SBC-5
  IC50: 7.47 nM
SCC-4
  IC50: 2.39 nM
SK-HEP1
  IC50: 12.1 nM
SK-LU-1
  IC50: 18.7 nM
SK-MEL-24
  IC50: 31.5 nM
SNU-387
  IC50: 11.4 nM
SNU-423
  IC50: 19.5 nM
SW1463
  IC50: 69.7 nM
SW1710
  IC50: 5.61 nM
SW-620
  IC50: 8.84 nM
SAOS-2
  IC50: 32.3 nM
SiHa
  IC50: > 100 nM
T98G
  IC50: 11.4 nM
23132-87
  IC50: 20.6 nM
5637
  IC50: 0.951 nM
639-V
  IC50: 5.61 nM
647-V
  IC50: 23 nM
A2058
  IC50: 1.22 nM
ABC-1
  IC50: 15.5 nM
BEN
  IC50: 81.2 nM
BHT-101
  IC50: 31.4 nM
BT-20
  IC50: 37.7 nM
C32
  IC50: > 100 nM
TYK-nu
  IC50: 11.9 nM
YAPC
  IC50: 87 nM
CAPAN-1
  IC50: 52.3 nM
